Source: paper PMC9228955, “Synthesis, Physicochemical, Labeling and In Vivo Characterization of ^44Sc-Labeled DO3AM-NI as a Hypoxia-Sensitive PET Probe” (Pharmaceuticals, 2022)

Key:
[1] = Octanol/water partition coefficient (logP) of labeled complexes; type: physicochemical; conditions: 1-octanol/water, triplicates
Protocol: (§1) Subsequently, the octanol/water partition coefficient (logP) of the labeled complexes was determined to be −3.89 for [^68Ga]Ga(DO3AM-NI) and −2.59 for [^44Sc]Sc(DO3AM-NI). […] To assess the labeled compounds’ stability, the chelates were mixed with the solution of mouse plasma, Na2H2EDTA and oxalic acid, respectively. Aliquots were then taken at different time points (0, 60, 120 and 240 min) and injected into the radio-HPLC column, and the chromatograms were analyzed. After 240 min, the RCP of the samples was above 93% in all three cases.
A 10 µL volume of [^68Ga]Ga(DO3AM-NI) and [^44Sc]Sc(DO3AM-NI) solution (~5 MBq) was mixed with 500 µL of 1-octanol and 490 µL of water in an Eppendorf vial, respectively. The mixture was shaken with a vortex shaker (600 rpm) for 10 min and centrifuged (6000 rpm) for 5 min. Then, 100 µL from the octanol phase and 1 μL from the aqueous phase were pipetted into vials, and the aqueous aliquot was diluted to 100 µL with water in order to minimize the effects of sample geometry and the high difference of activity concentrations in the two solvents. The radioactivity of the fractions was determined with a gamma counter. The measurements were performed in triplicates for both labeled compounds.

[2] = Ex vivo biodistribution in healthy control SCID mice; design: species or system CB17 SCID mice; conditions: mean ± SD
Protocol: Ex vivo biodistribution studies were carried out 90 min and 240 min after intravenous injection of ^44Sc- or ^68Ga-labeled DO3AM-NI, and the accumulated activities of the organs and tissues were determined using a gamma counter. By the quantitative analysis of the ex vivo data, significant differences were found between the %ID/g values when ^44Sc- and ^68Ga-labeled DO3AM-NI accumulations were compared. […] In contrast, e.g., [^18F]fluorine- [28], [^131I]iodine- [29], [^99mTc]technetium- [30] and [^64Cu]copper-labeled nitroimidazole-based probes, due to their chemical properties, were mainly metabolized via the liver, and the large abdominal accumulation impaired the evaluation of abdominal tumors in the PET images. The ^44Sc- and ^68Ga-labeled nitroimidazole derivatives had more favorable properties in terms of the reporting and evaluation of PET images and due to their rapid elimination through the urinary system.
(§2) For the determination of ex vivo biodistribution of the radiotracers, control and KB tumor-bearing mice were injected intravenously with 8.42 ± 0.38 MBq of ^68Ga- or ^44Sc-labeled DO3AM-NI via the tail vein. Mice were euthanized with 5% isoflurane 90 min or 4 h after intravenous radiotracer injection. Three tissue samples were taken from the selected organs, and their weight and radioactivity were measured with a calibrated gamma counter (Perkin-Elmer Packard Cobra, Waltham, MA, USA). The radiotracer uptake was expressed as %ID/g tissue.

KB tumors [3] = assay: In vivo PET/MRI imaging of KB tumor-bearing mice, quantitative SUV analysis; design: species or system CB17 SCID mice; conditions: 240 min after injection
Protocol: The tumor-specific accumulation of [^44Sc]Sc(DO3AM-NI) and [^68Ga]Ga(DO3AM-NI) was investigated by PET/MRI imaging 90 and 240 min after radiotracer injection using KB tumor-bearing mice. The subcutaneously growing KB tumors were clearly visualized using [^44Sc]Sc(DO3AM-NI) 90 and 240 min post injection with relatively higher SUVmean and SUVmax values (SUVmean: 1.46 ± 0.32 and SUVmax: 2.35 ± 0.47 at 90 min and SUVmean: 0.67 ± 0.03 and SUVmax: 1.55 ± 0.28 at 240 min). Lower accumulation was found in the same KB tumors by using the ^68Ga-labeled molecule (SUVmean: 0.79 ± 0.10, SUVmax: 1.94 ± 0.40 at 90 min and SUVmean: 0.51 ± 0.09 and SUVmax: 1.23 ± 0.10 at 240 min); however, this difference between the radiotracers was not significant (Figure 4E). […] In contrast, no significant differences were found between the T/M SUV values of the two radiotracers 90 min post injection (Figure 4F).
(§3) For tumor induction, SCID mice were injected with 5x10^6 KB tumor cells in 0.9% NaCl (100 µL) subcutaneously into the left shoulder area. The tumor growth was assessed by caliper measurements, and tumor size was calculated using the following formula: (largest diameter × smallest diameter^2)/2. In vivo experiments were carried out approximately 13 ± 1 days after […] injection of tumor cells at the tumor volume of approximately 110 mm^3.
(§4) For in vivo imaging studies, healthy control and KB tumor-bearing CB17 SCID mice were injected with 8.42 ± 0.38 MBq of ^68Ga- or ^44Sc-labeled DO3AM-NI via the lateral tail vein 13 ± 1 days after the inoculation of KB tumor cells. Then, 65 and 225 min after radiotracer injection, mice were anaesthetized by 3% isoflurane (Forane) with a dedicated small animal anesthesia device and whole-body T1-weighted MRI scans were performed (3D GRE EXT multi-FOV; TR/TE 15/2 ms; phase: 100; FOV 60 mm; NEX 2) using the preclinical nanoScan PET/MRI system with 1 Tesla magnetic field (Mediso Ltd., Hungary). After MRI imaging, 20 min static whole-body PET scans were acquired (90 min and 4 h after radiotracer injection).
Quantitative radiotracer uptake was expressed in terms of standardized uptake value (SUV), SUV = [VOI activity (Bq/mL)]/[injected activity (Bq)/animal weight (g)], assuming a density of 1 g/mL. Volumes of interest (VOI) were manually drawn around the edge of the organ or tumor activity using the InterView™ FUSION (Mediso Ltd., Hungary) image analysis software. Tumor-to-muscle (T/M) ratios were computed as the ratio between the activity in the tumor VOI and in the background (muscle) VOI. Skeletal muscles of the right shoulder area were used as background.

[4] = In vivo PET/MRI imaging of healthy control SCID mice, quantitative SUV analysis; design: species or system CB17 SCID mice; conditions: 90 and 240 min after tracer injection
Protocol: The biodistribution of ^44Sc- and ^68Ga-labeled DO3AM-NI was investigated using healthy control and KB tumor-bearing SCID mice. PET/MRI imaging and ex vivo studies were performed 90 and 240 min after intravenous injection of ^44Sc- or ^68Ga-labeled DO3AM-NI. By the qualitative analysis of the PET/MRI images, the kidneys and the bladder with urine were clearly visualized using both radiotracers at each investigated time point; however, in other abdominal and thoracic organs, low uptake was observed.
as §4, with “After MRI imaging, 20 min static whole-body PET scans were acquired (90 min and 4 h after radiotracer injection).” left out
Quantitative radiotracer uptake was expressed in terms of standardized uptake value (SUV), SUV = [VOI activity (Bq/mL)]/[injected activity (Bq)/animal weight (g)], assuming a density of 1 g/mL. […]

KB tumors [5] = assay: Ex vivo biodistribution in KB tumor xenografts; design: species or system CB17 SCID mice; conditions: for KB tumor uptake: 13 ± 1 days after subcutaneous tumor induction, n = 5, mean ± SD
Protocol: For the assessment of the accumulation in the tumors of [^44Sc]Sc(DO3AM-NI) and [^68Ga]Ga(DO3AM-NI), ex vivo biodistribution studies were performed 90 and 240 min post injection using KB tumor xenografts.
as §3, §2

[6] = Stability of labeled complexes in mouse plasma, Na2H2EDTA and oxalic acid by radio-HPLC; type: in vitro ADME
Protocol: as §1
A 10 µL volume of [^68Ga]Ga(DO3AM-NI) and [^44Sc]Sc(DO3AM-NI) solution was added to the solution of 90 µL of mouse plasma, Na2H2EDTA (0.01 M) and oxalic acid (0.01 M), respectively. Samples were analyzed by radio-HPLC at the beginning and after 60, 120 and 240 min. The analytical conditions were the same as detailed for the quality control of the labeled compound.

octanol/water partition coefficient (logP) [1]: −3.89
Blood uptake ([2]; 90 min after i.v. injection): 0.81 ± 0.22 %ID/g
Fat uptake ([2]; 90 min after i.v. injection): 0.13 ± 0.10 %ID/g
Heart uptake ([2]; 90 min after i.v. injection): 0.26 ± 0.06 %ID/g
Kidney uptake ([2]; 90 min after i.v. injection): 1.32 ± 0.47 %ID/g
Large intestine uptake ([2]; 90 min after i.v. injection): 0.20 ± 0.13 %ID/g
Liver uptake ([2]; 90 min after i.v. injection): 0.43 ± 0.11 %ID/g
Lung uptake ([2]; 90 min after i.v. injection): 0.49 ± 0.08 %ID/g
Muscle uptake ([2]; 90 min after i.v. injection): 0.10 ± 0.03 %ID/g
Small intestine uptake ([2]; 90 min after i.v. injection): 0.25 ± 0.10 %ID/g
Spleen uptake ([2]; 90 min after i.v. injection): 0.29 ± 0.14 %ID/g
Stomach uptake ([2]; 90 min after i.v. injection): 0.21 ± 0.04 %ID/g
Urine uptake ([2]; 90 min after i.v. injection): 65.94 ± 5.21 %ID/g
Blood uptake ([2]; 240 min after i.v. injection): 0.65 ± 0.11 %ID/g
Fat uptake ([2]; 240 min after i.v. injection): 0.12 ± 0.08 %ID/g
Heart uptake ([2]; 240 min after i.v. injection): 0.22 ± 0.04 %ID/g
Kidney uptake ([2]; 240 min after i.v. injection): 1.21 ± 0.17 %ID/g
Large intestine uptake ([2]; 240 min after i.v. injection): 0.15 ± 0.06 %ID/g
Liver uptake ([2]; 240 min after i.v. injection): 0.37 ± 0.10 %ID/g
Lung uptake ([2]; 240 min after i.v. injection): 0.46 ± 0.09 %ID/g
Muscle uptake ([2]; 240 min after i.v. injection): 0.06 ± 0.03 %ID/g
Small intestine uptake ([2]; 240 min after i.v. injection): 0.14 ± 0.04 %ID/g
Spleen uptake ([2]; 240 min after i.v. injection): 0.32 ± 0.18 %ID/g
Stomach uptake ([2]; 240 min after i.v. injection): 0.22 ± 0.06 %ID/g
Urine uptake ([2]; 240 min after i.v. injection): 17.08 ± 7.97 %ID/g
tumor-to-muscle ratio T/M SUVmax (KB tumors [3]): 41.72 ± 13.61
tumor-to-muscle ratio T/M SUVmean (KB tumors [3]): 85.66 ± 6.06
uptake (SUV) in liver, spleen, kidney, intestines, lung, heart and brain compared with [^44Sc]Sc(DO3AM-NI) [4]: significantly (p ≤ 0.01) higher
T/M (tumor-to-muscle ratio) (KB tumors [5]; 90 min after injection): 6.28 ± 1.11
KB tumor uptake (KB tumors [5]; 90 min after injection): 0.62 ± 0.10 %ID/g
T/M (tumor-to-muscle ratio) (KB tumors [5]; 240 min after injection): 7.51 ± 1.13
KB tumor uptake (KB tumors [5]; 240 min after injection): 0.46 ± 0.07 %ID/g
RCP after 240 min ([6]; Na2H2EDTA (0.01 M)): above 93%
RCP after 240 min ([6]; mouse plasma): above 93%
RCP after 240 min ([6]; oxalic acid (0.01 M)): above 93%
Compound: O=C([O-])CN1CCN(CC(=O)[O-])CCN(CC(=O)NCCn2ccnc2[N+](=O)[O-])CCN(CC(=O)[O-])CC1.[68Ga+3] [[^68Ga]Ga(DO3AM-NI)]
